ChEMBL document CHEMBL1143904, “Beta-lactam congeners of orlistat as inhibitors of fatty acid synthase” (Bioorg Med Chem Lett, 2008)
Active and inactive are the calls of the source. The calls are words filed in the database; no cut-off is given here.

Assay: Inhibition of recombinant fatty acid synthase thioesterase domain by fluorogenic assay

Row | SMILES | IC50 | Activity
1 | CCCCCC[C@@H]1C(=O)N(OCc2ccccc2)[C@H]1C[C@@H](O)CCCCC | 50.5 µM | –
2 | CCCCCCCCCCC[C@@H](C[C@@H]1NC(=O)[C@H]1CCCCCC)OC(=O)CNC=O | – | inactive
3 | CCCCCCCCCCC[C@H](C[C@@H]1[C@@H](CCCCCC)C(=O)N1OCc1ccccc1)O[Si](C)(C)C(C)(C)C | 97.4 µM | –
4 | CCCCCC[C@@H]1C(=O)N[C@H]1C[C@@H](O)CCCCC | 67.6 µM | –
5 | CCCCCCCCCCC[C@H](C[C@H]1NC(=O)[C@@H]1CCCCCC)OC(=O)CNC=O | – | inactive
6 | CCCCCCCCCCC[C@@H](C[C@H]1[C@H](CCCCCC)C(=O)N1OCc1ccccc1)O[Si](C)(C)C(C)(C)C | 8.6 µM | –
7 | CCCCCC[C@@H]1C(=O)N(OCc2ccccc2)[C@H]1C[C@H](CCCCC)OC(=O)[C@@H](NC=O)C(C)C | 58.2 µM | –

Next, values leading:

Row | IC50 | Activity | SMILES
8 | 39.2 µM | – | CCCCCCCCCCC[C@H](C[C@@H]1[C@@H](CCCCCC)C(=O)N1OCc1ccccc1)OC(=O)CNC=O
9 | 68.9 µM | – | CCCCCCCCCCC[C@@H](C[C@H]1[C@H](CCCCCC)C(=O)N1OCc1ccccc1)OC(=O)CNC=O
10 | 86.8 µM | – | CCCCCCCCCCC[C@H](O)C[C@H]1[C@H](CCCCCC)C(=O)N1OCc1ccccc1
11 | 61.2 µM | – | CCCCCCCCCCC[C@@H](O)C[C@@H]1[C@@H](CCCCCC)C(=O)N1OCc1ccccc1
